Reference: patent US20250051403A1, “ANTIMICROBIAL PEPTIDES, VARIANTS AND CHEMICAL ANALOGUES THEREOF AND THEIR USES” (priority 2021, published 2025)
Converted amounts (≈) assume the structure as drawn. Non-standard residues stand in square brackets, D forms with d. Residues, ends and D or L forms follow the SMILES beside them. Abu = CC[C@H](N)C(=O)O

Legend:
[1] = tested on: S. aureus methicillin resistant USA300 (ATCC BAA-1717); test: MIC, broth microdilution; format: cell-based, Staphylococcus aureus; settings: USA300
[2] = tested on: P. aeruginosa Fluoroquinolone resistant (CIP 107398); test: MIC, broth microdilution; format: cell-based, Pseudomonas aeruginosa; settings: CIP 107398
[3] = tested on: Salmonella enterica (CIP 80.39); test: MIC, broth microdilution; format: cell-based; settings: Table VI; Salmonella enterica
Description: To standardize the bacterial cell suspension for assay of antibacterial activity, some colonies of each strain grown overnight on MHA (Mueller Hinton Agar. ROTH) plates were suspended in MHB (Mueller Hinton Broth. ROTH) or MHB saline (Mueller Hinton Broth containing 565 mM NaCl) and incubated at 37° C. or 30° C. until visible turbid. This log-phase inoculum was diluted 1:100 in the same culture media. Using sterile 96-well microtiter plates (CELLSTAR. Greiner bio-one), serial 2-fold dilutions (40 to 0.78 μM) of each peptide were prepared in cation-adjusted acetic acid 0.02% with 0.4% BSA (Bovin Serum Albumin fraction V. Boehringer) at a volume of 10 μL/well. Each well was inoculated with 100 μL of the standardized bacterial inoculum, corresponding to a final test concentration of about 10^5 CFU/mL. Antimicrobial activities were expressed as the MIC (Minimal Inhibitory Concentration), the lowest concentration of peptide at which 100% inhibition of microbial growth was observed after 24 h of incubation at 37° C. or 30° C. by measuring OD600 in a microtiter plate reader. The minimal bactericidal concentration (MBC) was defined as the peptide concentration where no colony growth was observed.
The same experiments as described in 1) were performed. For the evaluation of antimicrobial activity against some other strains, a resazurin microtiter assay was used as explained hereinafter.

[4] = tested on: Acinetobacter baumannii; format: cell-based
Description: (§1) Biological (antimicrobial) activity of Michelicin (which comprises two disulfide bridges formed between four cysteines) synthetized with (A) or without (B) a stepwise formation of the desired disulfide pattern, was also determined. An analogue of Michelicin which has the same sequence as Michelicin except for the cysteine residues that are replaced by a neutral analogue of cysteine (i.e. Michelicin-OH 2343 (Abu-3-6-11-15)) was synthesized. Abu means 2-aminobutanoic group. This analogue is devoid of disulfide bridges. This analogue of Michelicin is called Michelicin no SS in Table VI.

[5] = tested on: Helicobacter pylori 21031; format: cell-based
Description: as §1

[6] = tested on: Staphylococcus aureus; format: cell-based
Description: as §1

[7] = tested on: Vibrio alginolyticus
[8] = tested on: V. diabolicus (HE 800)
[9] = tested on: B. subtilis nisin resistant (DSMZ 347); settings: Table VI; Bacillus subtilis Nisin resistant
[10] = tested on: Clostridium perfringens (ATCC 13124); settings: Table VI
[11] = tested on: M. smegmatis mc^2155

Question: For `CC[C@H](NC(=O)[C@H](CCCNC(=N)N)NC(=O)CNC(=O)[C@H](CC(N)=O)NC(=O)[C@H](CCCNC(=N)N)NC(=O)[C@H](CC)NC(=O)[C@@H](NC(=O)[C@H](CCCNC(=N)N)NC(=O)[C@@H](NC(=O)[C@H](CC)NC(=O)[C@@H](NC(=O)[C@@H](N)CCCNC(=N)N)C(C)C)C(C)C)[C@@H](C)CC)C(=O)N[C@@H](Cc1ccc(O)cc1)C(=O)N[C@@H](CCCNC(=N)N)C(=O)N[C@@H](CCCNC(=N)N)C(=O)N[C@@H](CC)C(=O)N[C@@H](Cc1c[nH]c2ccccc12)C(=O)N[C@@H](CC(N)=O)C(=O)N[C@H](C(=O)O)[C@@H](C)O` [Michelicin no SS, Michelicin-OH 2343 (Abu-3-6-11-15)] (H-RV[Abu]VRI[Abu]RNGR[Abu]YRR[Abu]WNT-OH; N-terminus assumed), which MIC [1] is on record?
Answer: >80 µM

Question: And the MIC [2]?
Answer: >80 µM

Question: What about the MIC [3] of the same compound?
Answer: 80 µM (≈ 187 µg/mL)

Question: What about the MIC [4] of the same compound?
Answer: 2.5 µM (≈ 5.86 µg/mL)

Question: What about the MIC [5] of the same compound?
Answer: 40 µM (≈ 93.7 µg/mL)

Question: And the MIC [6]?
Answer: 80 µM (≈ 187 µg/mL)

Question: What about the MIC [7] of the same compound?
Answer: 0.625 µM (≈ 1.46 µg/mL)

Question: What about the MIC [8] of the same compound?
Answer: >80 µM

Question: And the MIC [9]?
Answer: 5 µM (≈ 11.7 µg/mL)

Question: What about the MIC [10] of the same compound?
Answer: >80 µM

Question: What about the MIC [11] of the same compound?
Answer: 20 µM (≈ 46.9 µg/mL)
